Test results as given in patent US20220202897A1, “USE OF CYCLO(HIS-PRO) (CHP) FOR PREVENTING, AMELIORATING, OR TREATING FIBROSIS” (NOVMETAPHARMA CO., LTD., priority 2019, published 2022).

How the values were obtained:
[1] = test system: human-derived proximal tubular epithelial cells; test: Western blot of E-cadherin, fibronectin and pSTAT3 proteins in the human-derived proximal tubular epithelial cell fibrosis model; assay type: cell-based; settings: TGFβ 2 ng/ml, CHP 4, 20 and 100 μg/ml, FIG. 3
Description: Under the same conditions as in Example 1-2, the expression levels of proteins of E-cadherin, a junction marker, fibronectin, a fibrosis marker, and pSTAT3, a fibrosis transcription factor, after CHP administration were checked by Western blot.

Huh7 liver cell line = test: Fibronectin protein expression (Western blot) in a human-derived hepatocyte fibrosis model; assay type: cell-based; settings: Huh7 cells; TGFβ 2 ng/ml with CHP 250 ng/ml; 48 hours; corrected by GAPDH; FIG. 5
Procedure: (§1) DMEM medium and FBS were purchased from Hyclone for culturing the Huh7 liver cell line, and TGFβ for inducing fibrosis was purchased from R&D Systems. The cells were cultured in a DMEM medium supplemented with 10% FBS in a 5% CO2 incubator at 37° C., treated with TGFβ at a concentration of 2 ng/ml and treated with CHP at 0, 62.5, 125, or 250 ng/ml, and cells were harvested at 48 hours of treatment.
RIPA lysis buffer and Halt™ protease and phosphatase inhibitor cocktails was purchased from Thermo to analyze the expression of fibronectin protein, a fibrotic protein, and for protein quantification, BCA protein quantification kit was purchased from Thermo. […] The supernatant was collected, and the protein concentration was measured by BCA quantitation, and the protein was separated from the same amount of samples using the Bolt™ protein gel electrophoresis system, and transferred to a nitrocellulose membrane. […] After washing 3 times for 10 minutes with TBST, the expression level was measured by reacting with ECL. The size of the appearing band was quantified using the ImageJ program and corrected by dividing the fibronectin band size value by the GAPDH band size value. Statistical significance was analyzed using Student's t-test statistical method with the control group. #p<0.05 (negative control group: TGFβ treated control group).

[2] = test system: animal model of liver fibrosis; test: Fibronectin protein expression (Western blot) in liver tissue of a high-fat-diet animal model of liver fibrosis; assay type: in vivo, C57BL/6 mice; settings: 60% fat high-fat diet mice; CHP 5 or 35 mg/kg orally once a day for 16 weeks; vs HFD control; effect stronger according to the concentration; FIG. 6
Procedure: (§2) For liver fibrosis experiments in animals, 12-week-old C57BL/6 mice fed a high-fat diet containing 60% fat for 6 weeks were purchased from Jackson, USA, and Research diets D12492, a 60% fat-containing high-fat dietary feed purchased from Saeron Bio, were ingested for 17 weeks. Mice were bred to allow free access to feed and water in an environment of 24±3° C. C57BL/6 mice fed a high-fat diet for 6 weeks were acclimatized to the breeding environment for 1 week, and their weights were measured and evenly divided into 3 groups as shown in Table 1. CHP was orally administered to each group at a concentration of 5 mg/kg or 35 mg/kg once a day for 16 weeks, and the same amount of distilled water was orally administered to the control group in the same manner.
Isoflurane required for anesthesia and dissection of mice was purchased from Hana Pharmaceutical, and Vetequip's RC2 Rodent Circuit Controller Anesthesia System was prepared. Phosphate buffered saline (PBS) was purchased from Hyclone. To isolate the mouse liver tissue, the mice were anesthetized by respiratory anesthesia with 3-3.5% isoflurane. After blood was drawn from the heart of anesthetized mice, the liver tissue was immediately excised and washed with PBS. […] Statistical significance was analyzed using the Student's t-test statistical method with HFD control group (*p<0.05, **p<0.01).

[3] = test system: animal model of cardiac fibrosis; test: Fibrosis marker gene expression (real-time PCR) in heart tissue of a high-fat-diet animal model of cardiac fibrosis; assay type: in vivo, C57BL/6 mice; settings: high-fat diet mice; CHP 5 and 35 mg/kg orally once a day for 16 weeks; corrected by β-actin; no further decrease with concentration; FIG. 10
Procedure: as §2
For cardiac fibrosis experiments in animals, an animal model of cardiac fibrosis was established in the same manner as in Example 4-1.
Isoflurane required for anesthesia and dissection of mice was purchased from Hana Pharmaceutical, and Vetequip's RC2 Rodent Circuit Controller Anesthesia System was prepared. Phosphate buffered saline (PBS) was purchased from Hyclone. To isolate the mouse heart tissue, the mice were anesthetized by respiratory anesthesia with 3-3.5% isoflurane. After blood was drawn from the heart of the anesthetized mice, the heart tissue was immediately excised, 50 mg of the heart was cut out, and RNA extraction and gene expression analysis were performed in the same manner as in Example 6-2. The expression value of each gene was corrected by dividing by the expression value of (β-actin, a housekeeping gene.
Statistical significance was analyzed using one-way ANOVA statistical analysis, and the Dunnett post hoc test was used to compare the significance with the HFD control group (*p<0.05, **p<0.01, ****p<0.0001).

L-132 lung cell line = test: Fibronectin protein expression (Western blot) in a human-derived lung cell fibrosis model; assay type: cell-based; settings: L-132 cells; TGFβ 2 ng/ml with CHP 125 ng/ml; 48 hours; p<0.01 vs TGFβ-treated control; FIG. 7
Procedure: as §1, with “MEM” for “DMEM”, “L-132 lung” for “Huh7 liver”, “62.5,” for “62.5, 125,”, “125” for “250”
(§3) Western blotting was performed in the same manner as in Example 3-2 to analyze the expression of fibronectin protein, a fibrotic protein. Statistical significance was analyzed using Student's t-test statistical method with the control (#p<0.05 (negative control group: TGFβ-treated control group), **p<0.01 (TGFβ-treated control group: CHP 125 ng/ml-treated group)).

[4] = test system: animal model of pulmonary fibrosis; test: TGFβ and Collagen 3 gene expression (real-time PCR) in lung tissue of a high-fat-diet animal model of pulmonary fibrosis; assay type: in vivo, C57BL/6 mice; settings: high-fat diet mice; CHP 5 and 35 mg/kg orally once a day for 16 weeks; corrected by GAPDH; FIG. 8
[5] = test system: human-derived glomerular endothelial cells; test: Cytological morphology after CHP treatment in a human-derived glomerular endothelial cell fibrosis model (rTGFβ-induced); assay type: cell-based; settings: rTGFβ 2 ng/ml; CHP 40 and 100 μg/ml; FIG. 4
[6] = test system: human-derived proximal tubular epithelial cells; test: Cytological morphology after CHP treatment in a human-derived proximal tubular epithelial cell fibrosis model (TGFβ-induced); assay type: cell-based; settings: recombinant TGFβ 2 ng/ml; CHP 4, 20 and 100 μg/ml; FIG. 2
[7] = test system: HS68 skin fibroblast-derived cell line; test: Fibronectin protein expression (Western blot) in a human-derived skin cell fibrosis model; assay type: cell-based; settings: HS68 cells; TGFβ 2 ng/ml with CHP 500 ng/ml; 48 hours; p<0.05 vs TGFβ-treated control; FIG. 9
Procedure: as §1, with “HS68 skin fibroblast-derived” for “Huh7 liver”, “125, 250,” for “125,”, “500” for “250”
as §3, with “*p<0.05” for “**p<0.01”, “500” for “125”

[8] = test system: animal model of fat fibrosis; test: Fibrosis marker gene expression (real-time PCR) in epididymal adipose tissue of a high-fat-diet animal model of fat fibrosis; assay type: in vivo, C57BL/6 mice; settings: high-fat diet mice; CHP 5 and 35 mg/kg orally once a day for 16 weeks; corrected by GAPDH; FIG. 11
Procedure: as §2
For fat fibrosis experiments in animals, an animal model of fat fibrosis was established in the same manner as in Example 4-1.
Isoflurane required for anesthesia and dissection of mice was purchased from Hana Pharmaceutical, and Vetequip's RC2 Rodent Circuit Controller Anesthesia System was prepared. Phosphate buffered saline (PBS) was purchased from Hyclone. To isolate the mouse adipose tissue, the mice were anesthetized by respiratory anesthesia with 3-3.5% isoflurane. After blood was drawn from the heart of the anesthetized mice, the epididymal adipose tissue (EAT) was immediately excised, 100 mg of the fat was cut out, and RNA extraction and gene expression analysis were performed in the same manner as in Example 6-2. The expression value of each gene was corrected by dividing by the expression value of GAPDH, a housekeeping gene.
Statistical significance was analyzed using one-way ANOVA statistical analysis, and the Dunnett post hoc test was used to compare the significance with the control group (*p<0.05, **p<0.01).

## O=C1N[C@@H](Cc2cnc[nH]2)C(=O)N2CCC[C@@H]12 [CHP, Cyclo-HisPro]
[1]
  protein expression of E-cadherin (junction marker): restored
  protein expression of fibronectin (fibrosis marker): decreased
  protein expression of pSTAT3 (fibrosis transcription factor): decreased
Huh7 liver cell line
  expression level of fibronectin protein: showed a tendency to decrease
[2]
  expression level of fibronectin protein in liver tissue: significantly decreased
[3]
  expression of Collagen 1 gene in heart: significantly reduced
  expression of Collagen 3 gene in heart: significantly reduced
  expression of Collagen 4 gene in heart: significantly reduced
  expression of Fibronectin gene in heart: significantly reduced
  expression of TGFβ gene in heart: significantly reduced
L-132 lung cell line
  expression level of fibronectin protein: significantly decreased
[4]
  expression of Collagen 3 gene in lung: decreased more significantly according to the CHP administration concentration
  expression of TGFβ gene in lung: decreased more significantly according to the CHP administration concentration
[5]
  cytomorphological fibrosis (cytoskeletal remodeling and morphological changes): fibrosis was improved
[6]
  cytomorphological fibrosis (cytoskeletal remodeling and morphological changes): fibrosis was improved
[7]
  expression level of fibronectin protein: significantly decreased
[8]
  expression of CTGF gene in fat (epididymal adipose tissue): markedly reduced
  expression of Collagen 3 gene in fat (epididymal adipose tissue): markedly reduced
  expression of Fibronectin gene in fat (epididymal adipose tissue): markedly reduced
  expression of TGFβ gene in fat (epididymal adipose tissue): markedly reduced
